{
  "source": "patent US7060486B2",
  "about": "“Inhibition of sulfate-reducing-bacteria-mediated degradation using bacteria which secrete antimicrobials” (priority 1998, dated 2006)",
  "key": {"wild-type P. fragi": {"system": "wild-type P. fragi", "assay": "Live/Dead stain control visualized with CSLM", "type": "cell-based", "conditions": "200 μg ml^−1 added to 12-hour culture, visualized after 48 hours", "quoted_text": "Cells and polysaccharide were stained for 30 min simultaneously in 4 ml of staining solution using the Live/Dead Baclit bacteria viability assay kit protocol (1.125 μl ml^−1 of each stain component, Molecular Probes (Eugene, Oreg.)) and calcofluor (300 μl ml^−1, Sigma (St. Louis, Mo.), Stewart et al. 1995). The live/dead viability kit distinguishes live and dead cells based on membrane integrity; live cells with intact membranes stain green, and dead cells with compromised membranes stain red.\nAs a control experiment to verify that the Live/Dead stain can be used to quantify populations with live and dead cells, 200 μg ml^−1 of kanamycin was added to a 12-hour wild-type P. fragi culture and visualized with CSLM after 48 hours."}, "E. coli BK6": {"system": "E. coli BK6", "assay": "Antimicrobial activity of concentrated culture supernatants in suspension", "type": "cell-based", "conditions": "buffer + kanamycin 100 μg/mL", "protocol": "B. subtilis BE1500 containing the plasmid pBE92-based constructs expressing the antimicrobial peptide genes was grown in 25 mL of LB medium to late-exponential phase (O.D600=0.70–1.0) at 37° C. The cells were collected by centrifugation at 10,000×g for 10 mins at 4° C., and the supernatant was concentrated 25-fold using a SpeedVac concentrator (Model 200H, Savant Instruments Inc., Holbrook, N.Y.).\nExpression of indolicidin and bactenecin in Bacillus was determined in duplicates by exposing E. coli BK6 in suspension to concentrated culture supernatants. E. coli BK6 was grown to an O.D600 of 0.20–0.25, pelleted at room temperature, and resuspended in different volumes (50 or 100 μL) of the concentrated supernatant. The cell suspension was incubated at 30° C. for 1 hour without aeration, and appropriate dilutions were plated on LB agar plates to determine the antimicrobial activity of the supernatant."}, "[1]": {"system": "SRB (D. vulgaris) on 304 stainless steel", "assay": "Continuous reactor with 304 stainless steel and SRB, electrochemical impedance spectroscopy", "conditions": "100 μg/mL added to P. fragi K biofilm 24 hours before D. vulgaris", "protocol": "Batch culture corrosion experiments using SAE 1018 mild steel coupons (2.5 cm diameter, 1.2 mm thick) were performed in triplicates in 250 mL Erlenmeyer flasks at 30° C. without shaking as described previously (Jayaraman et al., 1997a). A continuous reactor (Jayaraman et al., 1997c) was also used to develop biofilms on 304 stainless steel and monitor corrosion using electrochemical impedance spectroscopy (EIS) in a minimum of two independent reactors using a Solarton-Schlumberger electrochemical measurement unit (SI 1280, Schlumberger Technical Instruments Division, San Jose, Calif.) interfaced to a Macintosh computer (PowerMac 7100/80, Apple Computers, Cupertino, Calif.) running EISIS electrochemical experimentation software (University of California, Irvine) (similar commercial software, THALES, can also be used). The open circuit potential (OCP) was measured as the potential between the metal specimen and a Ag/AgCl reference electrode, and the polarization resistance (Rp) was determined as the low-frequency value of the impedance (where the imaginary part of the impedance was zero or negligible). Continuous culture corrosion rates were estimated as the inverse of the polarization resistance (Macdonald, D. D. and M. C. H. McCubre, Applications of impedance spectroscopy, p. 262–267. In J. R. Macdonald (ed.), Impedance spectroscopy: Emphasizing solid materials and systems, John Wiley & Sons, New York (1987); Stem, M., Journal of Electrochemical Society, 105(11):638–647 (1958)).\nA continuous reactor was used to develop biofilms on metal surfaces as previously described (Jayaraman et al., 1997c). Electrochemical impedance spectroscopy (EIS) was used to obtain impedance data in at least duplicate experiments using a Solarton-Schlumberger electrochemical measurement unit (SI 1280, Schlumberger Technical Instruments Division, San Jose, Calif.) interfaced to a Macintosh computer (PowerMac 7100/80, Apple Computers, Cupertino, Calif.) running EISIS electrochemical experimentation software (University of California, Irvine) (THALES, a similar commercial software, can also be used). The open-circuit potential (OCP) was measured as the potential between the metal specimen and the reference electrode (Ag/AgCl), and the polarization resistance was determined as the dc limit of the impedance using the ANALEIS software developed by Mansfeld et al. (ASTM Special Technical Protocol 1154:186 (1992)). […]"}, "[2]": {"system": "SRB (D. vulgaris) on SAE 1018 mild steel", "assay": "Continuous reactor with SAE 1018 mild steel and SRB, electrochemical impedance spectroscopy", "description": "A continuous reactor was used to develop biofilms on metal surfaces as previously described (Jayaraman et al., 1997c). Electrochemical impedance spectroscopy (EIS) was used to obtain impedance data in at least duplicate experiments using a Solarton-Schlumberger electrochemical measurement unit (SI 1280, Schlumberger Technical Instruments Division, San Jose, Calif.) interfaced to a Macintosh computer (PowerMac 7100/80, Apple Computers, Cupertino, Calif.) running EISIS electrochemical experimentation software (University of California, Irvine) (THALES, a similar commercial software, can also be used). The open-circuit potential (OCP) was measured as the potential between the metal specimen and the reference electrode (Ag/AgCl), and the polarization resistance was determined as the dc limit of the impedance using the ANALEIS software developed by Mansfeld et al. (ASTM Special Technical Protocol 1154:186 (1992)). Continuous culture corrosion rates were estimated from the experimental polarization resistance Rp based on the Stern-Geary equation Rp=B/Icorr, where B is a parameter depending on the Tafel slopes and icorr is the corrosion current density which can be converted into a corrosion rate using Faraday's law (Mansfeld, F., The polarization resistance technique for measuring corrosion currents, In Fontana, M. G., Staehle, R. W. (ed.), Advances in Corrosion Science and Technology, Plenum Press, New York (1976)).\nA 3% (vol/vol) SRB inoculum (culture age 24–48 hours) was added to the reactor after 3 to 5 days of aerobic biofilm development. […] All antimicrobials were simultaneously added to the nutrient feed and the reactor at appropriate concentrations."}, "D. gigas (ATCC 19364)": {"system": "D. gigas (ATCC 19364)", "assay": "SRB inhibitory assay: viability after one-hour exposure, MPN technique", "type": "cell-based", "protocol": "(§1) D. vulgaris (ATCC 29579) and D. gigas (ATCC 19364) were obtained from the American Type Culture Collection and cultivated in 15 mL screwcap tubes with 10 mL of modified Baar's medium (ATCC medium 1249) supplemented with 100 μL each of the oxygen-scavengers 4% sodium sulfide and Oxyrase (Oxyrase Inc., Mansfeld, Ohio). Initial cultures were grown from −85° C. glycerol stocks; all subsequent cultures were grown with a 3% inoculum from the initial culture maintained at 30° C. without shaking. […] SRB were also cultured periodically in the presence of 0.1% ferrous ammonium sulfate, and the presence of these sulfate-reducers was confirmed by the detection of black iron sulfide in the culture tubes. The desulfoviridin assay was also performed after each MPN assay to confirm the presence of D. vulgaris or D. gigas by its red color under UV light due to the release of the chromophore of the pignment desulfoviridin. (Postgate, 1984).\n(§2) For determining the viability indices (Romeo, et al., 1988) of SRB, a late-exponential phase culture (O.D600 0.16 to 0.19 which corresponded to an initial cell number of 5–9×10^4 cells/mL) was exposed to various concentrations of antimicrobials for 1 hour at 30° C. One mL of cells was harvested, washed once in fresh modified Baar's medium to remove cellular debris, and resuspended in 1 mL of fresh modified Baar's medium supplemented with 10 μL each of Oxyrase (Oxyrase Inc., Mansfeld, Ohio) and 4% sodium sulphide. Aliquots of 450 μL were dispensed in 500 μL sterile eppendorf tubes and appropriate amounts of antimicrobials added and incubated at 30° C. The effectiveness of treatment was determined by the multiple-tube most-probable-number (MPN) fermentation technique. (Anonymous. Multiple-tube fermentation technique for members of the coliform group, pp. 9–45 to 9–51. In A. E. Greenberg, L. S. Clesceri, and A. D. Eaton (eds.), Standard Methods for the Examination of Water and Wastewater, 18 ed. American Public Health Association, American Water Works Association, and Water Pollution Control Federation, New York (1992)) (hereafter, Greenberg, 1992).\n(§3) The MPN test for enumerating SRB was performed in three 12 mL tubes with a 1000 μL inoculum of SRB, three 12 mL tubes with a 500 μL inoculum, and three 12 mL tubes with a 100 μL inoculum. All nine tubes contained a final volume of 10 mL of modified Baar's medium supplemented with 100 μL each of 4% sodium sulfide and Oxyrase (Oxyrase Inc., Mansfeld, Ohio). The tubes were monitored for 72 hours to determine the number of tubes that were positive for growth. Growth was determined by the increase in culture turbidity, and the MPN index/mL was calculated using the Thomas formula. (Greenberg 1992)."}, "D. vulgaris (ATCC 29579)": {"system": "D. vulgaris (ATCC 29579)", "assay": "SRB inhibitory assay: viability after one-hour exposure, MPN technique", "type": "cell-based", "protocol": "as §1, §2, §3"}, "Gram-negative bacteria": {"system": "Gram-negative bacteria", "conditions": "cited from earlier work"}, "P. fragi K": {"system": "P. fragi K", "assay": "Growth of P. fragi K in overnight suspension cultures with antimicrobials", "type": "cell-based", "conditions": "100 μg/mL, overnight suspension culture"}, "Escherichia coli": {"system": "Escherichia coli", "conditions": "5–25 μg/mL; cited from earlier work"}, "Staphylococcus aureus": {"system": "Staphylococcus aureus", "conditions": "5–25 μg/mL; cited from earlier work"}, "B. subtilis BE1500": {"system": "B. subtilis BE1500", "assay": "Susceptibility of host strains to purified antimicrobials (plate counts)", "type": "cell-based", "conditions": "one hour exposure at 30° C.", "protocol": "(§4) To determine the susceptibility of the hosts B. subtilis BE1500 and B. polymyxa to the expressed antimicrobials, these strains were grown from a single colony in 25 mL of LB medium with shaking at 37° C. to an O.D600 of 0.40–0.45. One mL aliquots were collected, washed with fresh LB medium and resuspended in 100 μL fresh LB medium in sterile eppendorf tubes. The antimicrobials indolicidin and bactenecin were added (50–100 μg/mL) and the tubes were incubated at 30° C. for one hour without shaking. Appropriate dilutions were spread on LB agar plates and incubated overnight at 37° C. to determine the extent of survival. The results were confirmed by performing two independent experiments."}, "B. polymyxa 10401": {"system": "B. polymyxa 10401", "assay": "Susceptibility of host strains to purified antimicrobials (plate counts)", "type": "cell-based", "conditions": "one hour exposure at 30° C.", "protocol": "as §4"}, "B. subtilis WB600": {"system": "B. subtilis WB600", "assay": "Susceptibility of host strains to purified antimicrobials (plate counts)", "type": "cell-based", "conditions": "one hour exposure at 30° C."}},
  "note": "Square brackets hold non-standard residues; d marks the D form. Ends that are not written are not given here. Peptide text beside a SMILES is read from it. Orn = NCCC[C@H](N)C(=O)O",
  "data": [
    {"compound": "NC[C@H]1O[C@H](O[C@H]2[C@H](O)[C@@H](O[C@H]3O[C@H](CO)[C@@H](O)[C@H](N)[C@H]3O)[C@H](N)C[C@@H]2N)[C@H](O)[C@@H](O)[C@@H]1O", "note": "[kanamycin]", "values": [
      {"measurement": "red (dead) share of the sample", "setting": "wild-type P. fragi", "result": "approximately 75%"},
      {"measurement": "inhibition at 100 µg/mL", "setting": "E. coli BK6; Escherichia coli, BK6", "result": 100, "unit": "%"},
      {"measurement": "E. coli BK6 CFU/mL", "setting": "E. coli BK6", "result": "4 × 10^3 CFU/mL"}
    ]},
    {"compound": "CC(C)C[C@@H]1NC(=O)[C@H](CCCN)NC(=O)[C@H](C(C)C)NC(=O)[C@@H]2CCCN2C(=O)[C@@H](Cc2ccccc2)NC(=O)[C@H](CC(C)C)NC(=O)[C@H](CCCN)NC(=O)[C@H](C(C)C)NC(=O)[C@@H]2CCCN2C(=O)[C@@H](Cc2ccccc2)NC1=O", "note": "[gramicidin S] (cyclo(V[Orn]L[dF]PV[Orn]L[dF]P))", "values": [
      {"measurement": "effect on D. vulgaris, in words", "setting": "[1]", "result": "completely effective in inhibiting the growth of D. vulgaris"},
      {"measurement": "effect on D. vulgaris, in words", "setting": "[2]; 100 μg/mL added to P. fragi K biofilm 24 hours before D. vulgaris", "result": "the onset of D. vulgaris-induced corrosion of mild steel was delayed"},
      {"measurement": "time after D. vulgaris addition without change / increase in Rp", "setting": "[2]; 100 μg/mL added to P. fragi K biofilm before D. vulgaris", "result": "≥ 80", "unit": "h"},
      {"measurement": "reduction of viability", "setting": "D. gigas (ATCC 19364); D. gigas, 1 h, 25 μg/mL", "result": "92–96%"},
      {"measurement": "concentration with inhibitory effect", "setting": "D. gigas (ATCC 19364); this study", "result": "50 to 100", "unit": "µg/mL"},
      {"measurement": "reduction of viability", "setting": "D. vulgaris (ATCC 29579); D. vulgaris, 1 h, 100 μg/mL", "result": 93, "unit": "%"},
      {"measurement": "concentration with inhibitory effect", "setting": "D. vulgaris (ATCC 29579); this study", "result": "50 to 100", "unit": "µg/mL"},
      {"measurement": "concentration that completely inhibits growth", "setting": "Gram-negative bacteria", "result": "3 to 12.5", "unit": "µg/mL"},
      {"measurement": "growth of P. fragi K, in words", "setting": "P. fragi K", "result": "grew to saturation"}
    ]},
    {"compound": "ILPWKWPWWWPWRR [Ind-OH]", "values": [
      {"measurement": "fold less effective than the amidated form of indolicidin", "setting": "D. gigas (ATCC 19364); 25 μg/mL", "result": 10, "unit": "fold"},
      {"measurement": "fold less effective than the amidated form of indolicidin", "setting": "D. vulgaris (ATCC 29579); 25 μg/mL", "result": 174, "unit": "fold"},
      {"measurement": "inhibition", "setting": "Escherichia coli", "result": 99.9, "unit": "%"},
      {"measurement": "inhibition", "setting": "Staphylococcus aureus", "result": 99.9, "unit": "%"},
      {"measurement": "Fold-reduction in cell number", "setting": "B. subtilis BE1500; 50 μg/mL", "result": 6000},
      {"measurement": "Fold-reduction in cell number", "setting": "B. subtilis BE1500; 100 μg/mL", "result": "10,000"},
      {"measurement": "Fold-reduction in cell number", "setting": "B. polymyxa 10401; 50 μg/mL", "result": 4},
      {"measurement": "Fold-reduction in cell number", "setting": "B. polymyxa 10401; 100 μg/mL", "result": 4},
      {"measurement": "Fold-reduction in cell number", "setting": "B. subtilis WB600; 50 μg/mL", "result": "20,000"},
      {"measurement": "Fold-reduction in cell number", "setting": "B. subtilis WB600; 100 μg/mL", "result": "40,000"}
    ]}
  ]
}
